Patent US12678414B2, “Compositions for treatment of fungal nail infections” (Blueberry Therapeutics Limited, priority 2016, dated 2026)
“Also recorded” adds a separate entry of the source. Counter-ions that a name gives are not always drawn. Like-named read-outs stand apart in the source and are kept apart here.

Columns and labels:
Trichophyton verrucosum = conditions: 17 strains tested; cited from earlier work
[1] = type: in vitro ADME; conditions: human, 7 days
Protocol: Nail clippings were soaked in water overnight at 30° C. and dried briefly. A 3 mm diameter punch was used to take disc biopsies of the nail clippings. Each nail disc was added to a Franz cell and an upper chamber of the cell attached. 40 μl of the following formulations was added to the upper chambers: 0.3 mg/ml PHMB+0.1 mg/ml terbinafine; or 10 mg/ml terbinafine. Lower collection chambers of the Franz cells were filled with water (approximately 600 μl) and the hole in the base of the sample chamber also filled with ddH2O to prevent bubbles forming beneath the nail. The upper sample chamber was carefully placed into the collection chamber ensuring not to introduce any air bubbles. Excess liquid from the collection chamber was expelled at this point leaving a final volume of liquid in the lower chamber of 500 μl. […]
The nail discs from the Franz cell were also analysed for the presence of terbinafine as follows: the remaining test sample was removed from the upper sample chamber and discarded and the sample chamber washed 5 times with 100 μl ddH2O, with each wash being discarded, in order to remove any residual test solution remaining in the sample chamber. […]
The cells were then incubated at 32° C. for 7 days. […] After 7 days, samples from the underside of the nail (ethanol washes) were collected and analysed by LC-MS/MS. […] Levels of terbinafine were quantified against drug standards. […]

Microsporum species = conditions: 25 strains tested; cited from earlier work
[2] = tested on: Trichophyton interdigitale; conditions: 11 strains tested; cited from earlier work
onychomycosis [3] = conditions: oral, following 3-6 months of dosing; cited from earlier work
[4] = Nanoparticle analysis on Nanosight LM10; type: physicochemical
Protocol: Nanoparticle formation was routinely confirmed on a Nanosight LM10 instrument (Malvern Instruments). Additional nanoparticle analyses were carried out using a Zetasizer (Malvern Instruments). […] Initial analysis used a Nanosight LM10 nanosizer (Malvern Instruments) to detect nanoparticles in solution. […] The LM10 uses direct visualisation of the particles through a microscope where particles are tracked by a video camera and their sizes calculated using the Einstein-Stokes equation, which relates particle velocity in a solution to their diameter. This video capture also allows for a qualitative assessment of different formulations during their analysis. However, this instrument has a lower cut-off range of approximately 20 nm diameter for analysis.

Trichophyton species = conditions: 27 strains tested; cited from earlier work
Trichophyton rubrum = conditions: 72 strains tested; cited from earlier work
[5] = oral dosing, cited from earlier work
[6] = tested on: Trichophyton mentagrophytes; conditions: cited from earlier work
Trichophyton terestre = conditions: 1 strain tested; cited from earlier work
onychomycosis [7] = conditions: topical terbinafine; hydrochloride; cited from earlier work
Microsporum canis = conditions: 49 strains tested; cited from earlier work
Epidermophyton floccosum = conditions: 42 strains tested; cited from earlier work
T. mentagrophytes = assay: Trychophyton mentagrophytes anti-fungal paper disc lawn assay; type: cell-based
Protocol: A single colony of T. mentagrophytes was picked from a stock plate and grown for 48 hours in 5 mls of YEPD (yeast extract, peptone, dextrose) medium at 30° C. A sterile swab was dipped into the resulting culture and then used to spread a lawn of T. mentagrophytes onto a YEPD agar plate supplemented with chloramphenicol (50 ug/ml). […] A 10 mm sterile paper disc was soaked in test solution, the excess liquid removed and the disc placed onto the T. mentagrophytes lawn. Plates were inverted and incubated at 30° C. for 5 days. The first experiment performed was to establish the approximate MIC (minimum inhibitor concentration) for terbinafine against T. mentagrophytes in a paper disc assay. […] After 5 days of incubation, zones of clearance were observed around the discs with concentrations of terbinafine having anti-fungal activity against this species (as shown in FIG. 10). […] The reported figures were certainly derived from a liquid MIC assay, which is known to be more sensitive, and so this paper disc assay represented a substantially more stringent test of drug efficacy. This assay was also used to address the question of whether terbinafine passing through the nail in BB0305 treated samples still retained its antifungal efficacy.

In the case of `CN(C/C=C/C#CC(C)(C)C)Cc1cccc2ccccc12` [terbinafine, terbinafine hydrochloride], the MIC range (Trichophyton verrucosum) is listed as 1 to 6 ng/mL, the “median concentration of drug in dissolved nails” value [1] is listed as “approximately 0.5 mg/g” and the “terbinafine passing through the nail (ethanol washes of underside)” value ([1]; 0.1 mg/ml) is listed as under 0.1 ng/mL. For the same molecule, the MIC range (Microsporum species) was 2 to 70 ng/mL, the MIC range [2] was 2 to 28 ng/mL and the cure (onychomycosis [3]) was over 80%. The “number of particles/ml of solution” value ([4]; 0.1 mg/ml terbinafine in 30% (v/v) ethanol) was under 5e+07 mL⁻¹, the “particle size range (diameter)” value ([4]; 0.1 mg/ml terbinafine, 30% ethanol) was 50-800 nm and the particle number ([4]; 30% ethanol, room temperature at least 24 hours, 0.1 mg/ml terbinafine) was 0.5×10^8 particles/ml. The MIC range (Trichophyton species) was at most 60 ng/mL, the MIC range (Trichophyton rubrum) was 1 to 38 ng/mL and the “terbinafine concentration in nails” value ([5]; after 3 weeks) was “about 0.25 μg/g”. The “terbinafine concentration in nails” value ([5]; after 18 months) was 0.55 µg/g, the “terbinafine concentration in nails” value ([5]; after 7 days treatment) was 0.1 µg/g and the MIC range ([6]; 32 strains tested) was 1 to 6 ng/mL. For the same molecule, the “previously reported MIC” value ([6]; liquid MIC assay, with reference to Table 1) was 6 ng/mL, the MIC range (Trichophyton terestre) was 2 ng/mL and the “efficacy in the treatment of onychomycosis” value (onychomycosis [7]) was “failed to show efficacy; also recorded: failed to demonstrate any significant efficacy”. For the same molecule, the MIC range (Microsporum canis) was 6 to 80 ng/mL, the MIC range (Epidermophyton floccosum) was 1 to 47 ng/mL and the “paper disc MIC relative to previously reported MIC” value (T. mentagrophytes; 0.6 μg/ml versus 6 ng/ml) was over 100 ×. The MIC (T. mentagrophytes; Trichophyton mentagrophytes, 120 h, paper disc assay, 5 days incubation, approximate, read-out: MIC (minimum inhibitor concentration)) was 600 ng/mL and the “antifungal activity (zone of clearance) of sample that passed through nail” value (T. mentagrophytes; aqueous phase of Franz cell collection chamber after 7 days treatment of healthy human nail, 30° C., 5 days) was “no effect”.
